How the values were obtained:
[1] = system: S. aureus clinical strain SAChu (MRSA); assay: Growth (A578) and biofilm (A595) in polystyrene plates; format: cell-based, Staphylococcus aureus; settings: 12.5 μM β-PGG, 6 hr
Protocol: (§1) An overnight bacterial culture was 200-fold diluted with TSBg, and a 200 μL aliquot of the diluted culture was seeded into each well of 96-well polystyrene microtiter plates and incubated at 37° C. for a designated period of time. Cell growth was determined by measuring the absorbance at 578 nm (A578) with a microtiter plate reader (SpectraMax 340, Molecular Devices). After washing with PBS twice to remove suspended cells, the wells were stained with 0.1% (w/v) crystal violet in 10% ethanol and then treated with 30% acetic acid in dH2O, followed by detecting the absorbance at 595 nm (A595) with the microtiter plate reader to quantify the amount of biofilm formed on polystyrene surface.

[2] = system: S. aureus clinical strain SA13 (MSSA); assay: as above; format: cell-based, Staphylococcus aureus; settings: 12.5 μM β-PGG, 6 hr
Protocol: as §1

[3] = system: S. aureus clinical strain SA130 (MRSA); assay: as above; format: cell-based, Staphylococcus aureus; settings: 12.5 μM β-PGG, 6 hr
Protocol: as §1

[4] = system: S. aureus clinical strain SA486 (MRSA); assay: as above; format: cell-based, Staphylococcus aureus; settings: 12.5 μM β-PGG, 6 hr
Protocol: as §1

[5] = system: S. aureus clinical strain SA41 (MSSA); assay: as above; format: cell-based, Staphylococcus aureus; settings: 12.5 μM β-PGG, 6 hr
Protocol: as §1

[6] = system: S. aureus clinical strain SA44 (MRSA); assay: as above; format: cell-based, Staphylococcus aureus; settings: 12.5 μM β-PGG, 6 hr
Protocol: as §1

[7] = system: S. aureus clinical strain SA288 (MSSA); assay: as above; format: cell-based, Staphylococcus aureus; settings: 12.5 μM β-PGG, 6 hr
Protocol: as §1

[8] = system: S. aureus clinical strain SA703 (MRSA); assay: as above; format: cell-based, Staphylococcus aureus; settings: 12.5 μM β-PGG, 6 hr
Protocol: as §1

[9] = system: S. aureus clinical strain SA285 (MSSA); assay: as above; format: cell-based, Staphylococcus aureus; settings: 12.5 μM β-PGG, 6 hr
Protocol: as §1

[10] = system: S. aureus clinical strain SA289 (MSSA); assay: as above; format: cell-based, Staphylococcus aureus; settings: 12.5 μM β-PGG, 6 hr
Protocol: as §1

[11] = system: S. aureus SA113; assay: Biofilm formation on β-PGG/polyaniline-coated silicon rubber discs (safranin staining); format: cell-based; settings: Staphylococcus aureus, polyaniline carrier, 24 hrs
Protocol: β-PGG (stock conc.: 8.89 μg/mL in DMSO) in various amounts was evenly mixed with a fixed amount of polyaniline (40 μL, 3 mg/mL in DMSO) so as to provide a 100 μL β-PGG/polyaniline mixture with a final β-PGG concentration of 0.47 μM, 0.94 μM, 1.89 μM, 3.78 μM, 4.73 μM or 5.67 μM. The resultant β-PGG/polyaniline mixture was coated on the inner surfaces of the wells of 96-well polystyrene microtiter plates in an amount of 100 μL per well. After β-PGG coating, the plates were dried in a vacuum chamber, followed by UV sterilization for 30 min. An overnight culture of S. aureus SA113 was 200-fold diluted with TSBg, and a 200 μL aliquot of the diluted culture was seeded into each well of the β-PGG-coated microtiter plates. After culturing at 37° C. for 24 hrs, the wells were washed twice with PBS, and then examined by safranin staining according to a method described earlier (Christine Heilmann et al. (1996), Infect. Immun., 64 (1):277-282), so as to quantify the amount of biofilm formed on the β-PGG-coated polystyrene surface.
Meanwhile, 6-mm diameter silicon rubber discs, which were cut from a sheet of 2-mm thick silicon rubber with a paper punch, were also coated with the resultant β-PGG mixture in an amount of 100 μL per disc. […] After incubation at 37° C. for 24 hrs, each silicon rubber disc was subjected to safranin staining, so as to quantify the amount of biofilm formed thereon.

[12] = system: S. aureus SA113; assay: CFU counting of cells adhered to polystyrene surface; format: cell-based, Staphylococcus aureus
Excerpt: To count the number of viable cells, the removed suspended cells were suspended in PBS by pipetting, and the resultant cell suspension was sonicated and serially diluted and subsequently plated on TSBg agar plate for colony forming unit (CFU) counting according to a method described earlier (S. Schlag et al. (2007), J. Bacteriol., 189:7911-7919).
In addition to biofilm formation, the number of cells attached to polystyrene surface and polycarbonate surface were also counted. Subsequent to the incubation of S. aureus SA113 cells with β-PGG (0 μM, 6.25 μM or 12.5 μM) for 20, 40 and 60 min, cells adhered to the polystyrene surface or polycarbonate surface were washed and suspended in PBS, followed by plating on TSBg agar for CFU counting. After incubation on polystyrene surface for 20, 40 and 60 min, the number of cells counted for the DMSO-treated control (i.e., 0 μM β-PGG) was 4.1×10^5, 6.4×10^5 and 7.8×10^5 CFU, respectively (FIG. 4, panel A, black bars).

O=C(OC[C@H]1O[C@@H](OC(=O)c2cc(O)c(O)c(O)c2)[C@H](OC(=O)c2cc(O)c(O)c(O)c2)[C@@H](OC(=O)c2cc(O)c(O)c(O)c2)[C@@H]1OC(=O)c1cc(O)c(O)c(O)c1)c1cc(O)c(O)c(O)c1 [β-PGG, 1,2,3,4,6-penta-O-galloyl-β-D-glucopyranose]
Growth (A578) ([1]; 0 μM: 0.56 ± 0.02): 0.52 ± 0.04
Biofilm (A595) ([1]; 0 μM: 8.06 ± 0.10): 0.77 ± 0.11
Growth (A578) ([2]; 0 μM: 0.69 ± 0.09): 0.67 ± 0.06
Biofilm (A595) ([2]; 0 μM: 0.98 ± 0.13): 0.12 ± 0.04
Growth (A578) ([3]; 0 μM: 0.61 ± 0.12): 0.62 ± 0.17
Biofilm (A595) ([3]; 0 μM: 3.05 ± 0.10): 0.32 ± 0.04
Growth (A578) ([4]; 0 μM: 0.76 ± 0.08): 0.65 ± 0.02
Biofilm (A595) ([4]; 0 μM: 1.94 ± 0.19): 0.26 ± 0.07
Growth (A578) ([5]; 0 μM: 0.65 ± 0.02): 0.61 ± 0.05
Biofilm (A595) ([5]; 0 μM: 1.67 ± 0.27): 0.36 ± 0.05
Growth (A578) ([6]; 0 μM: 0.66 ± 0.08): 0.64 ± 0.04
Biofilm (A595) ([6]; 0 μM: 1.33 ± 0.01): 0.46 ± 0.01
Growth (A578) ([7]; 0 μM: 0.55 ± 0.01): 0.50 ± 0.01
Biofilm (A595) ([7]; 0 μM: 0.83 ± 0.02): 0.10 ± 0.01
Growth (A578) ([8]; 0 μM: 0.74 ± 0.10): 0.70 ± 0.07
Biofilm (A595) ([8]; 0 μM: 2.33 ± 0.02): 0.88 ± 0.07
Growth (A578) ([9]; 0 μM: 0.56 ± 0.09): 0.46 ± 0.03
Biofilm (A595) ([9]; 0 μM: 0.86 ± 0.09): 0.16 ± 0.02
Growth (A578) ([10]; 0 μM: 0.77 ± 0.02): 0.72 ± 0.07
Biofilm (A595) ([10]; 0 μM: 1.16 ± 0.01): 0.35 ± 0.01
inhibition at 1.9 µM ([11]; coating with 1.9 μM β-PGG): 62%
inhibition at 5.7 µM ([11]; coating with 5.7 μM β-PGG): 85%
number of cells attached to polystyrene surface ([12]; 6.25 μM, 20 min, DMSO control 4.1×10^5): 2.1×10^5 CFU
number of cells attached to polystyrene surface ([12]; 6.25 μM, 40 min, DMSO control 6.4×10^5): 2.05×10^5 CFU
number of cells attached to polystyrene surface ([12]; 6.25 μM, 60 min, DMSO control 7.8×10^5): 1.8×10^5 CFU
number of cells attached to polystyrene surface ([12]; 12.5 μM, 20 min, DMSO control 4.1×10^5): 3.7×10^4 CFU
number of cells attached to polystyrene surface ([12]; 12.5 μM, 40 min, DMSO control 6.4×10^5): 2.3×10^4 CFU
number of cells attached to polystyrene surface ([12]; 12.5 μM, 60 min, DMSO control 7.8×10^5): 1.7×10^4 CFU
